PubChem BioAssay (NCI)
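The concentration for 50% growth inhibition is given as GI50. Definition used: TGI = concentration required for complete inhibition of growth.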

Tests used:
Assay in all cases: inhibition of tumour cell growth, NCI panel, 384-well format
786-0 renal = tested on: 786-0 renal
A498 renal = tested on: A498 renal
A549 NSCLC = tested on: A549 NSCLC
BT-549 breast = tested on: BT-549 breast
CAKI-1 renal = tested on: CAKI-1 renal
CCRF-CEM leukemia = tested on: CCRF-CEM leukemia
COLO 205 colon = tested on: COLO 205 colon
EKVX NSCLC = tested on: EKVX NSCLC
HCC-2998 colon = tested on: HCC-2998 colon
HCT-116 colon = tested on: HCT-116 colon
HCT-15 colon = tested on: HCT-15 colon
HL-60(TB) leukemia = tested on: HL-60(TB) leukemia
HOP-62 NSCLC = tested on: HOP-62 NSCLC
HOP-92 NSCLC = tested on: HOP-92 NSCLC
HS 578T breast = tested on: HS 578T breast
HT29 colon = tested on: HT29 colon
IGROV1 ovarian = tested on: IGROV1 ovarian
K-562 leukemia = tested on: K-562 leukemia
KM12 colon = tested on: KM12 colon
LOX IMVI melanoma = tested on: LOX IMVI melanoma
M14 melanoma = tested on: M14 melanoma
MALME-3M melanoma = tested on: MALME-3M melanoma
MCF7 breast = tested on: MCF7 breast
MDA-MB-231 breast = tested on: MDA-MB-231 breast
MDA-MB-468 breast = tested on: MDA-MB-468 breast
MOLT-4 leukemia = tested on: MOLT-4 leukemia
NCI-H23 lung = tested on: NCI-H23 lung
NCI-H322M lung = tested on: NCI-H322M lung
NCI-H460 NSCLC = tested on: NCI-H460 NSCLC
NCI-H522 lung = tested on: NCI-H522 lung
NCI/ADR-RES ovarian = tested on: NCI/ADR-RES ovarian
OVCAR-3 ovarian = tested on: OVCAR-3 ovarian
OVCAR-5 ovarian = tested on: OVCAR-5 ovarian
OVCAR-8 ovarian = tested on: OVCAR-8 ovarian
PC-3 prostate = tested on: PC-3 prostate
RPMI-8226 leukemia = tested on: RPMI-8226 leukemia
RXF 393 renal = tested on: RXF 393 renal
SF-268 CNS = tested on: SF-268 CNS
SF-295 CNS = tested on: SF-295 CNS
SF-539 CNS = tested on: SF-539 CNS
SK-MEL-28 melanoma = tested on: SK-MEL-28 melanoma
SK-MEL-5 melanoma = tested on: SK-MEL-5 melanoma
SK-OV-3 ovarian = tested on: SK-OV-3 ovarian
SN12C renal = tested on: SN12C renal
SNB-19 CNS = tested on: SNB-19 CNS
SNB-75 CNS = tested on: SNB-75 CNS
SW-620 colon = tested on: SW-620 colon
T-47D breast = tested on: T-47D breast
TK-10 renal = tested on: TK-10 renal
U251 glioblastoma = tested on: U251 glioblastoma
UACC-257 melanoma = tested on: UACC-257 melanoma
UACC-62 melanoma = tested on: UACC-62 melanoma
UO-31 renal = tested on: UO-31 renal
ACHN renal = tested on: ACHN renal
DU-145 prostate = tested on: DU-145 prostate
NCI-H226 lung = tested on: NCI-H226 lung
OVCAR-4 ovarian = tested on: OVCAR-4 ovarian
SR leukemia = tested on: SR leukemia

Cc1cc(Nc2ncc3c(n2)N(C)C(=O)N(c2cc(NC(=O)c4cccc(C(F)(F)F)c4)ccc2C)C3)n(C)n1
GI50 ([…]-0 renal): 40.1 nM
TGI (786-0 renal): 302 nM
GI50 (A498 renal): 14.2 nM
TGI (A498 renal): 105 nM
GI50 (A549 NSCLC): 17.9 nM
TGI (A549 NSCLC): 0.162 µM
GI50 (BT-549 breast): 19.9 nM
TGI (BT-549 breast): 0.0733 µM
GI50 (CAKI-1 renal): < 0.01 µM
TGI (CAKI-1 renal): 0.0205 µM
GI50 (CCRF-CEM leukemia): 1340 nM
TGI (CCRF-CEM leukemia): 3.42 µM
GI50 (COLO 205 colon): < 10 nM
TGI (COLO 205 colon): 128 nM
GI50 (EKVX NSCLC): 40.8 nM
TGI (EKVX NSCLC): 305 nM
GI50 (HCC-2998 colon): 45.8 nM
TGI (HCC-2998 colon): 1090 nM
GI50 (HCT-116 colon): 27.2 nM
TGI (HCT-116 colon): 147 nM
GI50 (HCT-15 colon): 0.224 µM
TGI (HCT-15 colon): 1390 nM
GI50 (HL-60(TB) leukemia): 21.6 nM
TGI (HL-60(TB) leukemia): 107 nM
GI50 (HOP-62 NSCLC): 87.6 nM
TGI (HOP-62 NSCLC): 0.534 µM
GI50 (HOP-92 NSCLC): 17.3 nM
TGI (HOP-92 NSCLC): 0.0746 µM
GI50 (HS 578T breast): 15.6 nM
TGI (HS 578T breast): 54.3 nM
GI50 (HT29 colon): 16.4 nM
TGI (HT29 colon): 312 nM
GI50 (IGROV1 ovarian): < 10 nM
TGI (IGROV1 ovarian): 34.6 nM
GI50 (K-562 leukemia): < 10 nM
GI50 (KM12 colon): 513 nM
TGI (KM12 colon): > 100 µM
GI50 (LOX IMVI melanoma): < 10 nM
TGI (LOX IMVI melanoma): 11 nM
GI50 (M14 melanoma): < 10 nM
TGI (M14 melanoma): 28.8 nM
GI50 (MALME-3M melanoma): < 0.01 µM
GI50 (MCF7 breast): 880 nM
TGI (MCF7 breast): > 100 µM
GI50 (MDA-MB-231 breast): 11.3 nM
TGI (MDA-MB-231 breast): 87.1 nM
GI50 (MDA-MB-468 breast): 25.1 nM
TGI (MDA-MB-468 breast): 98.2 nM
GI50 (MOLT-4 leukemia): 22.1 nM
TGI (MOLT-4 leukemia): 1360 nM
GI50 (NCI-H23 lung): 24.4 nM
TGI (NCI-H23 lung): 189 nM
GI50 (NCI-H322M lung): 22 nM
TGI (NCI-H322M lung): 0.137 µM
GI50 (NCI-H460 NSCLC): 52 nM
TGI (NCI-H460 NSCLC): > 100000 nM
GI50 (NCI-H522 lung): < 10 nM
TGI (NCI-H522 lung): 0.0313 µM
GI50 (NCI/ADR-RES ovarian): 1650 nM
TGI (NCI/ADR-RES ovarian): 3240 nM
GI50 (OVCAR-3 ovarian): 24.3 nM
TGI (OVCAR-3 ovarian): 198 nM
GI50 (OVCAR-5 ovarian): 0.0342 µM
TGI (OVCAR-5 ovarian): 254 nM
GI50 (OVCAR-8 ovarian): 34.1 nM
TGI (OVCAR-8 ovarian): 0.337 µM
GI50 (PC-3 prostate): 4.25 µM
TGI (PC-3 prostate): > 100 µM
GI50 (RPMI-8226 leukemia): 286 nM
TGI (RPMI-8226 leukemia): 1790 nM
GI50 (RXF 393 renal): < 10 nM
TGI (RXF 393 renal): 87.1 nM
GI50 (SF-268 CNS): < 10 nM
TGI (SF-268 CNS): 13.6 nM
GI50 (SF-295 CNS): 1420 nM
TGI (SF-295 CNS): > 100 µM
GI50 (SF-539 CNS): 72.6 nM
TGI (SF-539 CNS): 577 nM
GI50 (SK-MEL-28 melanoma): 0.0162 µM
TGI (SK-MEL-28 melanoma): 0.083 µM
GI50 (SK-MEL-5 melanoma): 32.3 nM
TGI (SK-MEL-5 melanoma): 8.42 µM
GI50 (SK-OV-3 ovarian): < 10 nM
TGI (SK-OV-3 ovarian): 42.9 nM
GI50 (SN12C renal): 0.0111 µM
TGI (SN12C renal): 59.3 nM
GI50 (SNB-19 CNS): 0.199 µM
TGI (SNB-19 CNS): > 100 µM
GI50 (SNB-75 CNS): 18.9 nM
TGI (SNB-75 CNS): 77.9 nM
GI50 (SW-620 colon): 0.0699 µM
TGI (SW-620 colon): 1280 nM
GI50 (T-47D breast): 25.7 nM
TGI (T-47D breast): 0.0751 µM
GI50 (TK-10 renal): 0.0288 µM
TGI (TK-10 renal): 0.12 µM
GI50 (U251 glioblastoma): 25.8 nM
TGI (U251 glioblastoma): 1200 nM
GI50 (UACC-257 melanoma): 33.8 nM
TGI (UACC-257 melanoma): 311 nM
GI50 (UACC-62 melanoma): < 10 nM
TGI (UACC-62 melanoma): 15 nM
GI50 (UO-31 renal): 0.134 µM
TGI (UO-31 renal): 0.312 µM

Cc1nc(-c2nc(-c3ccc(OC(F)(F)F)cc3)no2)nn1Cc1cccc(N2CCC(S(C)(=O)=O)CC2)c1
GI50 (A549 NSCLC): 2610 nM
TGI (A549 NSCLC): 33.9 µM
GI50 (ACHN renal): 10.4 µM
TGI (ACHN renal): 34.6 µM
GI50 (BT-549 breast): 2100 nM
TGI (BT-549 breast): 26.2 µM
GI50 (CAKI-1 renal): 4.66 µM
TGI (CAKI-1 renal): 71.1 µM
GI50 (CCRF-CEM leukemia): < 10 nM
TGI (CCRF-CEM leukemia): 3.59 µM
GI50 (DU-145 prostate): 29.4 µM
TGI (DU-145 prostate): > 100 µM
GI50 (HCT-116 colon): < 10 nM
TGI (HCT-116 colon): 2820 nM
GI50 (HCT-15 colon): 6.19 µM
TGI (HCT-15 colon): > 100000 nM
GI50 (HL-60(TB) leukemia): 156 nM
TGI (HL-60(TB) leukemia): 290 nM
GI50 (HOP-62 NSCLC): < 10 nM
TGI (HOP-62 NSCLC): 20.6 µM
GI50 (HOP-92 NSCLC): 567 nM
TGI (HOP-92 NSCLC): 46.2 µM
GI50 (K-562 leukemia): < 10 nM
TGI (K-562 leukemia): > 100 µM
GI50 (LOX IMVI melanoma): 47.9 nM
TGI (LOX IMVI melanoma): > 100000 nM
GI50 (MALME-3M melanoma): 23.6 µM
TGI (MALME-3M melanoma): 56.6 µM
GI50 (MCF7 breast): 221 nM
TGI (MCF7 breast): 50.8 µM
GI50 (MDA-MB-468 breast): < 10 nM
TGI (MDA-MB-468 breast): < 10 nM
GI50 (MOLT-4 leukemia): 27.1 nM
TGI (MOLT-4 leukemia): 208 nM
GI50 (NCI-H226 lung): 664 nM
TGI (NCI-H226 lung): 39.5 µM
GI50 (NCI-H23 lung): < 10 nM
TGI (NCI-H23 lung): < 10 nM
GI50 (NCI-H322M lung): 14.9 nM
TGI (NCI-H322M lung): 16.4 µM
GI50 (NCI-H460 NSCLC): < 10 nM
TGI (NCI-H460 NSCLC): 18.3 nM
GI50 (NCI-H522 lung): 1080 nM
TGI (NCI-H522 lung): 17.6 µM
GI50 (NCI/ADR-RES ovarian): < 10 nM
TGI (NCI/ADR-RES ovarian): 51.5 nM
GI50 (OVCAR-3 ovarian): 5090 nM
TGI (OVCAR-3 ovarian): > 100000 nM
GI50 (OVCAR-4 ovarian): 292 nM
TGI (OVCAR-4 ovarian): 24.8 µM
GI50 (OVCAR-5 ovarian): 86 µM
TGI (OVCAR-5 ovarian): > 100000 nM
GI50 (OVCAR-8 ovarian): < 10 nM
TGI (OVCAR-8 ovarian): 19.6 µM
GI50 (PC-3 prostate): 17.3 µM
TGI (PC-3 prostate): > 100 µM
GI50 (RPMI-8226 leukemia): < 10 nM
TGI (RPMI-8226 leukemia): 1030 nM
GI50 (RXF 393 renal): < 10 nM
TGI (RXF 393 renal): < 10 nM
GI50 (SF-295 CNS): 93.2 nM
TGI (SF-295 CNS): 37 µM
GI50 (SK-MEL-28 melanoma): 28 µM
TGI (SK-MEL-28 melanoma): 80.9 µM
GI50 (SK-MEL-5 melanoma): < 10 nM
TGI (SK-MEL-5 melanoma): 11.8 µM
GI50 (SN12C renal): 20.4 µM
TGI (SN12C renal): > 100000 nM
GI50 (SNB-19 CNS): 47.2 µM
TGI (SNB-19 CNS): > 100 µM
GI50 (SR leukemia): < 10 nM
TGI (SR leukemia): < 10 nM
GI50 (SW-620 colon): 11.5 µM
TGI (SW-620 colon): > 100000 nM
GI50 (T-47D breast): < 10 nM
TGI (T-47D breast): 23.4 µM
GI50 (TK-10 renal): 8.15 µM
TGI (TK-10 renal): 78.8 µM
GI50 (UACC-257 melanoma): 56.5 nM
TGI (UACC-257 melanoma): 827 nM
GI50 (UO-31 renal): 7.92 µM
TGI (UO-31 renal): 36.6 µM
